Target: T1, human IDO1 (Homo sapiens, UniProt P14902)
T1 construct: expressed in transfected cells
Test: HEK Human IDO-1 cell-based IDO inhibition assay
Settings: human IDO1/HEK293 cells, 20 hours incubation, kynurenine absorbance at 490 nm; read-out: HEK Human IDO-1 Bio Activity
Method: HEK293 cells were transfected with a pCDNA-based mammalian expression vector harboring human IDO1 cDNA (NM 002164.2) by electroporation. They were cultured in medium (DMEM with 10% FBS) containing 1 mg/ml G418 for two weeks. Clones of HEK293 cells that stably expressed human IDO1 protein were selected and expanded for IDO inhibition assay.
The human IDO1/HEK293 cells were seeded at 10,000 cells per 50 μL per well with RPMI/phenol red free media contains 10% FBS in a 384-well black wall clear bottom tissue culture plate (Matrix Technologies LLC) 100 nL of certain concentration of compound was then added to each well using ECHO liquid handling systems. The cells were incubated for 20 hours in 37° C. incubator with 5% CO2.
The compound treatments were stopped by adding trichloroacetic acid (Sigma-Aldrich) to a final concentration at 0.2%. The cell plate was further incubated at 50° C. for 30 minute. The equal volume supernatant (20 μL) and 0.2% (w/v) Ehrlich reagent (4-dimethylaminobenzaldehyde, Sigma-Aldrich) in glacial acetic acid were mixed in a new clear bottom 384-well plate. This plate was then incubated at room temperature for 30 minute. The absorbance at 490 nm was measured on Envision plate reader.
Compound IC50 values were calculated using the counts of 500 nM of a reference standard treatment as one hundred percent inhibition, and counts of no compound but DMSO treatment as zero percent inhibition.

T1 sequence (P14902 whole entry): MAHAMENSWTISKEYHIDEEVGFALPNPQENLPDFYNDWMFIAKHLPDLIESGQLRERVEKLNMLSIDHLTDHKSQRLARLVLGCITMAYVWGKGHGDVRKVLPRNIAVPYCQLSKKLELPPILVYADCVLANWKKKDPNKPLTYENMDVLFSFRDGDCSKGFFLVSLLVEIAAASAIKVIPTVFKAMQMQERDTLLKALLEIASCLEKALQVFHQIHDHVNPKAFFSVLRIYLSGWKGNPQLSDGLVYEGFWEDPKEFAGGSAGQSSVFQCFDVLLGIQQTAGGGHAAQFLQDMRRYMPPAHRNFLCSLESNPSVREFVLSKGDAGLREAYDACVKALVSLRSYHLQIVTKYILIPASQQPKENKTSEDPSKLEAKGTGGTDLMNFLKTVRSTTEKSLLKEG

Compound | IC50
CCOc1ccc(NC(=O)N[C@H](C)[C@H]2CC[C@@H](c3ccnc4ccc(F)cc43)CC2)cc1 [Example 6, 1-(4-ethoxyphenyl)-3-((R)-1-((1s,4S)-4-(6-fluoroquinolin-4-yl)cyclohexyl)ethyl)urea] | < 50 nM
C[C@@H](NC(=O)Nc1ccc(F)cc1)[C@H]1CC[C@@H](c2ccnc3ccc(F)cc32)CC1 [Example 8, 1-(4-fluorophenyl)-3-((R)-1-((1s,4S)-4-(6-fluoroquinolin-4-yl)cyclohexyl)ethyl)urea] | < 50 nM
Cc1ccc(NC(=O)N[C@H](C)[C@H]2CC[C@@H](c3ccnc4ccc(F)cc43)CC2)cc1Cl [Example 7, 1-(3-chloro-4-methylphenyl)-3-((R)-1-((1s,4S)-4-(6-fluoroquinolin-4-yl)cyclohexyl)ethyl)urea] | < 50 nM
COc1ccc(OC(=O)N[C@H](C)[C@H]2CC[C@@H](c3ccnc4ccc(F)cc43)CC2)cc1 [Example 11, 4-methoxyphenyl (R)-1-((1s,4S)-4-(6-fluoroquinolin-4-yl)cyclohexyl)ethylcarbamate] | < 50 nM
CC[C@@H](NC(=O)Nc1ccc(Cl)cc1)[C@H]1CC[C@H](Oc2ccnc3ccccc23)CC1 (racemic) [Example 3, (±)-1-(4-chlorophenyl)-3-((R)-1-((trans)-4-(quinolin-4-yloxy)cyclohexyl)propyl)urea] | < 50 nM
C[C@@H](NC(=O)Nc1ccc(Cl)cc1)[C@H]1CC[C@@H](c2ccnc3ccc(F)cc32)CC1 [Example 5, 1-(4-chlorophenyl)-3-((R)-1-((1s,4S)-4-(6-fluoroquinolin-4-yl)cyclohexyl)ethyl)urea] | < 50 nM
Cc1ccc(NC(=O)N[C@H](C)[C@H]2CC[C@@H](c3ccnc4ccc(F)cc43)CC2)cc1 [Example 4, 1-((R)-1-((1s,4s)-4-(6-Fluoroquinolin-4-yl)cyclohexyl)ethyl)-3-p-tolylurea] | < 50 nM
C[C@@H](NC(=O)Oc1ccc(F)cc1)[C@H]1CC[C@@H](c2ccnc3ccc(F)cc32)CC1 [Example 10, 4-fluorophenyl (R)-1-((1s,4S)-4-(6-fluoroquinolin-4-yl)cyclohexyl)ethylcarbamate] | < 250 nM
Cc1ccc(OC(=O)N[C@H](C)[C@H]2CC[C@@H](c3ccnc4ccc(F)cc43)CC2)cc1 [Example 9] | < 250 nM
CC(NC(=O)Nc1ccc(Cl)cc1)C1CCN(c2ccnc3ccc(F)cc23)CC1 (racemic) [Example 1, (±)-1-(4-Chlorophenyl)-3-(1-(1-(6-fluoroquinolin-4-yl)piperidin-4-yl)ethyl)urea] | < 2000 nM
O=C(Nc1ccc(Cl)cc1)NC1CC12CCC(c1ccnc3ccc(F)cc13)CC2 (racemic) [Example 2, (±)-1-(4-chlorophenyl)-3-(6-(6-fluoroquinolin-4-yl)spiro [2.5]octan-1-yl)urea] | < 2000 nM

From US10544099B2, “Inhibitors of indoleamine 2,3-dioxygenase and methods of their use” (BRISTOL-MYERS SQUIBB COMPANY, priority 2016, dated 2020)
